According to patent US9228991B2, “Methods and kits for detection of drugs” (RAMOT AT TEL-AVIV UNIVERSITY LTD., priority 2010, dated 2016):
Like-named read-outs stand apart in the source and are kept apart here.

Assays:
[1] = cited from earlier work
[2] = cited from earlier work; remark: listed apart in the source
[3] = GHB solubility / precipitation in anti-solvents

Row | Compound | Physical Effect ([1]; ketamine dose 10-80 mg (low), <0.01-0.08% in drink) | Physical Effect ([1]; ketamine dose 130-250 mg (high), 0.13-0.25% in drink) | Physical Effect ([1]; ketamine dose >250 mg (mega), >0.25% in drink) | Physical Effect ([2]; GHB dose 4-8 (very high), 4-8% in drink) | dose at which a dangerous overdose can occur ([2]; depending on body weight and metabolism) | heavy dose ([2]; in vivo) | solubility in anti-solvent ([3]; acetonitrile) | solubility in anti-solvent ([3]; pure ethanol)
1 | CNC1(c2ccccc2Cl)CCCCC1=O (centres unmarked) [ketamine] | Mild euphoria | K-hole, near comatose state | Powerful deep sleep. | – | – | – | – | –
2 | O=C(O)CCCO [GHB, gamma-hydroxybutyrate] | – | – | – | Powerful deep sleep. | two | approximately 2.5 grams | mostly insoluble | mostly insoluble
